# Test results as given in patent US7112586B2, “Substituted diamine derivatives useful as motilin antagonists” (Ortho-McNeil Pharmaceutical, Inc., priority 2000, dated 2006).
# Experiments:
# [1] = molecular target: T1, motilin receptor preparation (Human antrum tissue) (Homo sapiens, UniProt O43193); assay: 125I-motilin binding to human antral stomach membranes; design: % Inh (Human antrum): dose or concentration left out as unconfirmed; conditions: for inhibition at 1 µM: read-out: Human Antrum % Inh @1 μM
# T1 construct: Human antrum tissue from Analytical Biological Services (Wilmington, Del.) was prepared as a motilin receptor preparation; tissue Analytical Biological Services (Wilmington, Del.); host or cells: human antrum (stomach) muscle tissue, crude membrane homogenate
# Procedure: Human antrum tissue from Analytical Biological Services (Wilmington, Del.) was prepared as a motilin receptor preparation in the following manner. The muscle tissue was homogenized in 10 volumes of 50 mM Tris-Cl, 10 mM MgCl2, 0.1 mg/ml bacitracin, and 0.25 mM Peflabloc, pH 7.5) in a Polytron (29000 rpm, 4×15 seconds). The homogenate was centrifuged at 1000×g for 15 minutes and the supernatant discarded. The pellet was washed twice before being suspended in homogenizing buffer. The crude homogenate was resuspended through a 23 gauge needle before aliquoting and storing at −80° C. The human cloned receptor was prepared from HEK 293 cells overexpressed with the motilin receptor. Cell pellets were thawed and resuspended in 2–3 volumes of homogenizing buffer (10 mM Tris-Cl, 0.2 mM MgCl2, 5 mM KCl, 5 μg/ml aprotinin, leupeptin, and pepstatin A, and 50 μg/ml bacitracin, pH 7.5) and allowed to sit on ice for 15–20 minutes. The suspension was homogenized on ice in a Dounce type homogenizer using 15 strokes. Sucrose and EDTA were added to a final concentration of 0.25M and 1 mM, respectively, and mixed with a few additional strokes. The material was centrifuged at 400×g for 5 minutes, and the supernatant saved. The pellet was re-resuspended twice with 5 ml homogenizing buffer and rehomogenized as before, and the supernatants combined. The supernatant was centrifuged at 100000×g for 1 hour. The pellet is retained and resuspended with 5 ml of homogenizing buffer through a 19 g and 25 g needle. The suspension is aliquoted and stored at −80° C. until used. The binding assay contains the following components (50 mM HEPES, 5 mM MgCl2, and 1 mM EGTA, pH 7.0, 15 mg/ml BSA, 10 μg/ml aprotinin, leupeptin, and pepstatin A, 0.25 mg/ml bacitracin, and 10 mM benzamidine), ^125I-radiolabelled porcine motilin (50000–70000 cpm; specific activity 2000 Ci/mmol), test compound, and membrane protein. After 60 minutes at 30° C., the samples are placed on ice and centrifuged for 1 minute at 13000×g. The pellet is washed twice with 1 ml cold saline, and after removal of the final supernatant, the pellet at the bottom of the tube is counted in a gamma counter. Non-specific binding is measured by the inclusion of 1 μM unlabelled motilin. IC50 values were determined from Kaleidograph curves.
# 125I-Motilin Binding to Human Antral Stomach Membranes and the Human Cloned Receptor: […]
# [2] = molecular target: T2, human cloned receptor (motilin receptor) (Homo sapiens, UniProt O43193); assay: 125I-motilin binding to human cloned receptor (HEK 293 cells overexpressed with the motilin receptor); conditions: HEK 293 membranes
# T2 construct: expressed in transfected cells; host or cells: HEK 293 cells
# Procedure: Human antrum tissue from Analytical Biological Services (Wilmington, Del.) was prepared as a motilin receptor preparation in the following manner. The muscle tissue was homogenized in 10 volumes of 50 mM Tris-Cl, 10 mM MgCl2, 0.1 mg/ml bacitracin, and 0.25 mM Peflabloc, pH 7.5) in a Polytron (29000 rpm, 4×15 seconds). The homogenate was centrifuged at 1000×g for 15 minutes and the supernatant discarded. The pellet was washed twice before being suspended in homogenizing buffer. The crude homogenate was resuspended through a 23 gauge needle before aliquoting and storing at −80° C. The human cloned receptor was prepared from HEK 293 cells overexpressed with the motilin receptor. Cell pellets were thawed and resuspended in 2–3 volumes of homogenizing buffer (10 mM Tris-Cl, 0.2 mM MgCl2, 5 mM KCl, 5 μg/ml aprotinin, leupeptin, and pepstatin A, and 50 μg/ml bacitracin, pH 7.5) and allowed to sit on ice for 15–20 minutes. The suspension was homogenized on ice in a Dounce type homogenizer using 15 strokes. […] The pellet is washed twice with 1 ml cold saline, and after removal of the final supernatant, the pellet at the bottom of the tube is counted in a gamma counter. Non-specific binding is measured by the inclusion of 1 μM unlabelled motilin. IC50 values were determined from Kaleidograph curves. […]
# [3] = tested on: motilin induced contraction; assay: Rabbit tissue bath procedure: inhibition of motilin induced contraction of duodenum segments; design: species or system New Zealand White rabbit; conditions: 3 nM porcine motilin induced contraction, read-out: Tissues IC50
# Procedure: Rabbit Tissue Bath Procedure
# One New Zealand White rabbit (Covance) of either sex was euthanized with an IV injection of Sleepaway. The duodenum was quickly excised, the lumen rinsed with saline to clean, and the tissue placed in cold, aerated (95% O2–5% CO2) Tyrodes buffer (NaCl 136.9 mM, KCl 2.7 mM, CaCl2 1.8 mM, MgCl2 1.04 mM, NaH2PO4 0.42 mM, NaHCO3 11.9 mM, Glucose 5.55 mM, pH 7.4). The duodenum, being kept moist at all times, was cleaned of any excess mesenteric tissue, and then cut into 3 cm segments starting at the proximal end. Sixteen tissue segments were usually prepared from each duodenum. These segments were tied on both ends with 3-0 silk suture (Ethicon). One end of the tissue was attached to an S-hook on a custom made glass support rod (Crown Glass Co., Somerville) and the rod plus tissue were placed in a 15 ml isolated tissue bath (Radnoti). The other end of the glass rod was attached to a Grass Force Displacement Transducer FT03. The tissue was maintained in room temperature Tyrodes buffer pH 7.4 and continually gassed with 95% O2— 5% CO2. The tissues were adjusted to 1.0 g resting tension and maintained at that tension throughout the equilibration period. An Ml2 Tissue Bath Computer was used to record and analyze data.
# The tissues were washed twice during a 30 minute equilibration period and readjusted to 1 g resting tension as necessary. After equilibration the tissues were challenged with 3 μM Carbachol (Carbamoylcholine Chloride-Sigma). After maximal contraction was attained, the tissues were washed 3 times with Tyrodes. The tissues were allowed a 20 minute resting/equilibration period, during which time they were washed once and readjusted to 1 g resting tension. The tissues were challenged a second time with 3 μM Carbachol, and this contraction was considered as maximal, or 100% contraction. The tissues were washed 3 times, equilibrated for 10 minutes, washed again and readjusted to 1 g resting tension. Vehicle or test compound in 30% DMSO-50 mM HEPES was added directly to the bath and the tissues were incubated for 20 minutes. Test compounds and vehicle were run in duplicate.
# The percent inhibition by test compound of the motilin induced contraction was calculated by first determining the ratio of the vehicle contractions with Motilin compared to the Carbachol contractions. This Tissue Adjustment Factor (TAF) was used to determine the value for the potential uninhibited contraction with Motilin for each tissue. The percent inhibition was then determined by dividing the actual Motilin contraction in treated tissues by the potential uninhibited contraction and subtracting this number from 1. IC50 values were determined by graphing results with Kaleidograph graphing program.
# [4] = molecular target: T3, Motilin Receptor (Oryctolagus cuniculus, UniProt G1T803); assay: Motilin receptor binding, rabbit colon membranes, 125I porcine motilin; design: Rabbit Colon % Inh / inhibition / % Inh (Rabbit colon): dose or concentration left out as unconfirmed; conditions: rabbit colon membranes; 125I porcine motilin binding
# T3 construct: The muscle tissue was homogenized in 10 volumes of 50 mM Tris-Cl; from tissue; host or cells: rabbit colon smooth muscle, crude membrane homogenate
# T3 sequence (G1T803 1-400): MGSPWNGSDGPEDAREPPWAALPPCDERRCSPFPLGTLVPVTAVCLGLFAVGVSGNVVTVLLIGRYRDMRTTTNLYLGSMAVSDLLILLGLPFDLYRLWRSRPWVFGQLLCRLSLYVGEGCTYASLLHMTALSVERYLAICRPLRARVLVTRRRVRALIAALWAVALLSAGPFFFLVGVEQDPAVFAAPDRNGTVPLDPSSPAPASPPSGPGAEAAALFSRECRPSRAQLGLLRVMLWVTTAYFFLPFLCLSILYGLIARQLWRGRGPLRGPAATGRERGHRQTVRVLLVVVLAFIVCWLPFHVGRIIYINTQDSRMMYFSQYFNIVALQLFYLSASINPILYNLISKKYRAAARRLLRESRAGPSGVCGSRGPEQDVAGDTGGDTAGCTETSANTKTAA
# T1 sequence (O43193 whole entry): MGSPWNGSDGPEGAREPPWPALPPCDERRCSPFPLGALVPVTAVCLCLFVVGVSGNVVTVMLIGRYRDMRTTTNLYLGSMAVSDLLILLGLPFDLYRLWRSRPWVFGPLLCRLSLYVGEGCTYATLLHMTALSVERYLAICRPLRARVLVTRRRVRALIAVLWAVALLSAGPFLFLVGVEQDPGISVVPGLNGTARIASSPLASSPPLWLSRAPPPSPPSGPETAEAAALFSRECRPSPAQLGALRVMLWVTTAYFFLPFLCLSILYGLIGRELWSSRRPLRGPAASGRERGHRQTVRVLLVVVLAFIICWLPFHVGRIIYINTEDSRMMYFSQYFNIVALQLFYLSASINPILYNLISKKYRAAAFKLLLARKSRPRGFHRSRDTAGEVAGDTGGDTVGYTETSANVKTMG
# T2 sequence (O43193 whole entry): as above
Structure (SMILES),inhibition at 1 µM ([1]; human antrum membranes),IC50 ([1]; human antrum membranes),Human Antrum % Inh @1 μM ([1]; human antrum membranes),other results
CC[C@H](C)[C@H](NC(=O)[C@@H]1CCCN1C(=O)[C@@H](NC(=O)[C@@H](N)Cc1ccccc1)C(C)C)C(=O)N[C@@H](Cc1ccccc1)C(=O)N[C@H](C(=O)N[C@@H](Cc1ccc(O)cc1)C(=O)NCC(=O)N[C@@H](CCC(=O)O)C(=O)N[C@@H](CC(C)C)C(=O)N[C@@H](CCC(N)=O)C(=O)N[C@@H](CCCNC(=N)N)C(=O)N[C@@H](CCSC)C(=O)N[C@@H](CCC(N)=O)C(=O)N[C@@H](CCC(=O)O)C(=O)N[C@@H](CCCCN)C(=O)N[C@@H](CCC(=O)O)C(=O)N[C@@H](CCCNC(=N)N)C(=O)N[C@@H](CC(N)=O)C(=O)N[C@@H](CCCCN)C(=O)NCC(=O)N[C@@H](CCC(N)=O)C(=O)O)[C@@H](C)O [Motilin],,,,IC50 ([1]; 125I-Motilin binding to human antral stomach membranes): 0.001 ± 0.0001 µM; IC50 [2]: 0.00355 ± 5e-05 µM
O=C(c1ccc(F)cc1)N(C[C@H]1CC[C@@H](N(Cc2ccccc2)C(=O)C(Cl)(Cl)Cl)C1)c1cccc(OCCN2CCCC2)c1 [compound 218],98%,,,IC50 [3]: 0.035 µM
CC(C)(C)C(=O)N(Cc1ccccc1)C1CCC(CN(C(=O)c2ccc(F)cc2)c2cccc(OCCN3CCCC3)c2)C1 (stereo not drawn) [compound 216],,,100%,
O=C(c1ccc(F)cc1)N(CC1CCCC(N(Cc2ccccc2)Cc2ccccc2)C1)c1cccc(OCCN2CCCC2)c1 (stereo not drawn) [compound 222],,,,"% Inh (Rabbit colon) [4]: 83%; % Inh (Human antrum) ([1]; human antrum membranes, 125I porcine motilin binding): 83%"
O=C(c1ccc(F)cc1)N(CC1CCC(N(Cc2cccc([N+](=O)[O-])c2)C(=O)C(Cl)(Cl)Cl)C1)c1cccc(OCCN2CCCC2)c1 (stereo not drawn) [compound 219],,0.0076 µM,98%,

# Further lines, with some results ahead:
inhibition at 1 µM ([1]; human antrum membranes),IC50 ([1]; human antrum membranes),Human Antrum % Inh @1 μM ([1]; human antrum membranes),Structure (SMILES),other results
100%,0.032 µM,,CC(C)(C)C(=O)N(Cc1cccc(Cl)c1)C1CCCC(CN(C(=O)c2ccc(F)cc2)c2cccc(OCCN3CCCC3)c2)C1 (stereo not drawn) [compound 226],IC50 [3]: 0.009 µM
100%,0.025 µM,,CC(C)(C)C(=O)N(Cc1ccc(F)c(F)c1)C1CCCC(CN(C(=O)c2ccc(F)cc2)c2cccc(OCCN3CCCC3)c2)C1 (stereo not drawn) [compound 228],
100%,0.025 µM,,CC(C)(C)C(=O)N(Cc1ccc(Cl)c(Cl)c1)C1CCCC(CN(C(=O)c2ccc(F)cc2)c2cccc(OCCN3CCCC3)c2)C1 (stereo not drawn) [compound 227],
,,94%,CC(C)(C)C(=O)N(Cc1ccccc1)C1C=CC(CN(C(=O)c2ccc(F)cc2)c2cccc(OCCN3CCCC3)c2)C1 (stereo not drawn) [compound 221],
,,88%,O=C(c1ccc(F)cc1)N(C[C@H]1CC[C@@H](N(Cc2ccccc2)C(=O)C(Cl)(Cl)Cl)C1)c1cccc(OCCN2CCCC2)c1 [compound 231],
